Measured values: US8889705B2, “Noscapine analogs and their use in treating cancers” (Emory University, priority 2007, dated 2014)
Each block holds one molecule with its values, some of them ahead of it.

Legend:
CEM/VLB100 cells = details: CEM/VLB100 (Beck and Cirtain, 1982); cited from earlier work
CEM/VM-1-5 cells = details: CEM/VM-1-5 (Morgan et al., 2000); cited from earlier work
tubulin [1] = details: even at 100 μM (Zhou et al., 2003); cited from earlier work
tubulin [2] = target: T1, tubulin; details: values with literature reference [18], [12], [43]; read-out: dissociation constant (Kd) for binding to tubulin; cited from earlier work
T1 construct: other: 2 μM tubulin, 45 min at 37° C., double reciprocal plot; rate and extent of tubulin polymerization; other: 25 μM or 100 μM

CEM cells = experiment: In vitro cell proliferation MTS assay; type: cell-based; details: Homo sapiens, CCRF-CEM, 72 hours
Protocol: (§1) Suspension cells (CEM, CEMNLB100 and CEM/VM-1-5) were cultured in RPMI-1640 media containing 10% FBS and then seeded into 96-well plates at a density of 5×10^3 cells per well and were treated with increasing gradient concentrations of 9-nitro-nos for 72 hours. Measurement of cell proliferation was performed colorimetrically by 3-(4,5-dimethylthiazol-2-yl)-5-(3-carboxymethoxyphenyl)-2-(4-sulphophenyl)-2H-tetrazolium, inner salt (MTS) assay, using the CellTiter96 AQueous One Solution Reagent (Promega, Madison, Wis.). Cells were exposed to MTS for 3 hours and absorbance was measured using a microplate reader (Molecular Devices, Sunnyvale, Calif.) at an optical density (OD) of 490 nm. The percentage of cell survival as a function of drug concentration for both the assays was then plotted to determine the IC50 value, which stands for the drug concentration needed to prevent cell proliferation by 50%.
as §1, with “(CEM)” for “(CEM, CEMNLB100 and CEM/VM-1-5)”, “were” for “were cultured in RPMI-1640 media containing 10% FBS and then”, “increasing” for “increasing gradient”, “all halogenated analogs” for “9-nitro-nos”

MDA-MB-231 cells = experiment: Sulforhodamine B cell proliferation assay; type: cell-based; details: Homo sapiens; MDA-MB-231, 72 hours, SRB
Protocol: (§2) Sulforhodamine B (SRB) assay: The cell proliferation assay was performed in 96-well plates as described previously. Adherent cells (MCF-7 and MDA-MB-231) were seeded in 96-well plates at a density of 5×10^3 cells per well. They were treated with increasing concentrations of the halogenated analogs the next day while in log-phase growth. After 72 hours of drug treatment, cells were fixed with 50% trichloroacetic acid and stained with 0.4% sulforhodamine B dissolved in 1% acetic acid. After 30 minutes, cells were then washed with 1% acetic acid to remove the unbound dye. The protein-bound dye was extracted with 10 mM Tris base to determine the optical density at 564-nm wavelength.

MCF-7 cells [3] = experiment: Cell cycle analysis (propidium iodide, flow cytometry); type: cell-based, human; details: MCF-7, 25 μM, mean ± S.E.M.
Protocol: The flow cytometric evaluation of the cell cycle status was performed as described previously. Briefly, 2×10^6 cells were centrifuged, washed twice with ice-cold PBS, and fixed in 70% ethanol. Tubes containing the cell pellets were stored at 4° C. for at least 24 hours. Cells were then centrifuged at 1000×g for 10 min and the supernatant was discarded. The pellets were washed twice with 5 ml of PBS and then stained with 0.5 ml of propidium iodide (0.1% in 0.6% Triton-X in PBS) and 0.5 ml of RNase A (2 mg/ml) for 45 minutes in dark. Samples were then analyzed on a FACSCalibur flow cytometer (Beckman Coulter Inc., Fullerton, Calif.).

MCF-7 cells [4] = experiment: Sulforhodamine B cell proliferation assay; type: cell-based, human; details: Homo sapiens, MCF7, 72 h, MCF-7, 72 hours, SRB
Protocol: as §2

SMILES: CC[C@]1(O)C[C@@H]2CN(CCc3c([nH]c4ccccc34)[C@@](C(=O)OC)(c3cc4c(cc3OC)N(C)[C@H]3[C@@](O)(C(=O)OC)[C@H](OC(C)=O)[C@]5(CC)C=CCN6CC[C@]43[C@@H]65)C2)C1 [vinblastine]
resistance to vinblastine (CEM/VLB100 cells): 270 fold

SMILES: COc1cc([C@@H]2c3cc4c(cc3[C@@H](O[C@@H]3O[C@@H]5CO[C@@H](c6cccs6)O[C@H]5[C@H](O)[C@H]3O)[C@H]3COC(=O)[C@H]23)OCO4)cc(OC)c1O [teniposide]
resistance to teniposide (CEM/VM-1-5 cells): 400 fold

IC50 (MDA-MB-231 cells): 36.3 ± 1.8 µM | IC50 (MCF-7 cells [4]): 39.6 ± 2.2 µM
SMILES: COc1ccc2c(c1OC)C(=O)O[C@@H]2[C@H]1c2c(cc3c(c2OC)OCO3)CCN1C [Nos, (S)-6,7-dimethoxy-3-((R)-4-methoxy-6-methyl-5,6,7,8-tetrahydro[1,3]-dioxolo-[4,5-g]isoquinolin-5-yl)isobenzo-furan-1(3H)-one, reference compound]
microtubule polymerization upon binding tubulin (tubulin [1]): does not significantly promote or inhibit microtubule polymerization | Kd (tubulin [2]): 144 ± 2.8 µM | IC50 (CEM cells): 16.6 ± 2.4 µM | G0/G1 (MCF-7 cells [3]; 0 h): 54.8 ± 0.03% | G2/M (MCF-7 cells [3]; 0 h): 29.9 ± 2.2% | S (MCF-7 cells [3]; 0 h): 13.2 ± 0.2% | Sub-G1 (MCF-7 cells [3]; 0 h): 0.2 ± 0.03% | G0/G1 (MCF-7 cells [3]; 24 h): 18.3 ± 3.3% | G2/M (MCF-7 cells [3]; 24 h): 50.2 ± 3.6% | S (MCF-7 cells [3]; 24 h): 3.4 ± 0.8% | Sub-G1 (MCF-7 cells [3]; 24 h): 10.2 ± 1.2% | G0/G1 (MCF-7 cells [3]; 48 h): 19.8 ± 1.9% | G2/M (MCF-7 cells [3]; 48 h): 28.07 ± 0.2% | S (MCF-7 cells [3]; 48 h): 4.1 ± 0.6% | Sub-G1 (MCF-7 cells [3]; 48 h): 36.8 ± 3.7% | G0/G1 (MCF-7 cells [3]; 72 h): 20.5 ± 0.2% | G2/M (MCF-7 cells [3]; 72 h): 26.3 ± 0.2% | S (MCF-7 cells [3]; 72 h): 7.06 ± 0.2% | Sub-G1 (MCF-7 cells [3]; 72 h): 36.9 ± 0.2%
